Source: patent publication US20090104145A1, “Mixtures of Anthranilamide Invertebrate Pest Control Agents” (priority 2004, published 2009)

Experiments:
Experiment in all cases: whole plant or invertebrate
Assay type in all cases: in vivo
[1] = tested on: diamondback moth (Plutella xylostella); settings: for mortality at 10 ppm: rate 10 ppm; for mortality at 2 ppm: rate 2 ppm; for mortality at 0.08 ppm: rate 0.08 ppm; for mortality at 0.4 ppm: rate 0.4 ppm
Experimental: (§1) The pest control protection afforded by the mixtures or compositions is not limited, however, to these species. The analysis of synergism or antagonism between the mixtures or compositions was determined using Colby's equation. The average % mortality data for the test compounds alone were inserted into the Colby's equation. If the observed average % mortality was higher than “p”, the expected % mortality, the mixture or composition had synergistic effects. If the observed average % mortality was equal to or lower than the expected mortality, the mixture or composition either had no synergistic effect or an antagonistic effect. In these tests, Compound 1 is the compound of Formula 1.
For evaluating control of diamondback moth (Plutella xylostella), cabbage (var. Stonehead) plants were grown in Metromix potting soil in 10-cm pots in aluminum trays to test size (28 days, 3-4 full leaves) the plants were sprayed to the point of runoff using the turntable sprayer as described in Test I. Test compounds were formulated and sprayed on test plants as described for Test I. After drying for 2 hours, the treated leaves were excised and infested with one cabbage looper per cell and covered. The test units were placed on trays and put in a growth chamber at 25° C. and 60% relative humidity for 4 days.

[2] = tested on: silverleaf whitefly (Bemisia argentifolii Bellows and Perring); settings: for % mortality (obs): Table 2B, compound alone
Experimental: as §1
For evaluating control of silverleaf whitefly (Bemisia argentifolii Bellows and Perring) through contact and/or systemic means, each test unit consisted of a small open container with a 12- to 14-day-old cotton plant inside. This was pre-infested by placing test units into cages infested with adult whiteflies so that oviposition on the cotton leaves could occur. The adults were removed from the plants with an air-blast nozzle, and the test units were capped. The test units were then stored 2 to 3 days before spraying.
(§2) Test compounds were formulated using a solution containing 10% acetone, 90% water and 300 ppm X-77® Spreader Lo-Foam Formula non-ionic surfactant containing alkylarylpolyoxyethylene, free fatty acids, glycols and isopropanol (Loveland Industries, Inc.) to provide the desired concentration in ppm. Formulated test solutions were then applied in 1 mL volumes through a SUJ2 atomizer nozzle with ⅛ JJ custom body (Spraying Systems Co.) positioned 1.27 cm (0.5 inches) above the top of each test unit.
The results for all experimental compositions in this test were replicated three times. After spraying of the formulated test composition, each test unit was allowed to dry for 1 hour and the cap removed. The test units were held for 13 days in a growth chamber at 28° C. and 50-70% relative humidity.

[3] = tested on: western flower thrip (Frankliniella occidentalis Pergande)
Experimental: as §1, §2
For evaluating control of the western flower thrip (Frankliniella occidentalis Pergande) through contact and/or systemic means, each test unit consisted of a small open container with a 5- to 7-day-old bean (var. Soleil) plant inside.
Test solutions were formulated and sprayed with 3 replications as described for Test A. After spraying, the test units were allowed to dry for 1 hour, 22 to 27 adult thrips were added to each unit and then a black, screened cap was placed on top. The test units were held for 7 days at 25° C. and 45-55% relative humidity.

[4] = tested on: potato leafhopper (Empoasca fabae Harris); settings: Compound 1 0 ppm
Experimental: as §1, §2
For evaluating control of potato leafhopper (Empoasca fabae Harris) through contact and/or systemic means, each test unit consisted of a small open container with a 5- to 6-day-old Longio bean plant (primary leaves emerged) inside. White sand was added to the top of the soil, and one of the primary leaves was excised prior to application. Test compounds were formulated and sprayed with 3 replications as described for Test A. After spraying, the test units were allowed to dry for 1 hour before they were infested with 5 potato leafhoppers (18- to 21-day-old adults). A black, screened cap was placed on the top of each container. The test units were held for 6 days in a growth chamber at 19-21° C. and 50-70% relative humidity.

[5] = tested on: green peach aphid (Myzus persicae Sulzer)
Experimental: as §1, §2
(§3) For evaluating control of green peach aphid (Myzus persicae Sulzer) through contact and/or systemic means, each test unit consisted of a small open container with a 12- to 15-day-old radish plant inside. This was pre-infested by placing on a leaf of the test plant 30 to 40 aphids on a piece of leaf excised from a culture plant (cut-leaf method). The larvae moved onto the test plant as the leaf piece desiccated. After pre-infestation, the soil of the test unit was covered with a layer of sand.
(§4) Test compounds were formulated and sprayed as described in Test A, replicated three times. After spraying of the formulated test compound, each test unit was allowed to dry for 1 hour and then a black, screened cap was placed on top. The test units were held for 6 days in a growth chamber at 19-21° C. and 50-70% relative humidity.

[6] = tested on: cotton melon aphid (Aphis gossypii Glover)
Experimental: as §1, §2
as §3, with “cotton melon” for “green peach”, “(Aphis gossypii Glover)” for “(Myzus persicae Sulzer)”, “6-” for “12-”, “7-day-old cotton” for “15-day-old radish”
as §4, with “described for” for “described in”, “Test A. The applications were” for “Test A,”, “test compounds,” for “test compound,”

[7] = Plutella xylostella, in Brassica oleracea, read-out: % mortality (obs)
[8] = Plutella xylostella, in Brassica oleracea, rate 1000 ppm, read-out: % mortality (obs)
[9] = Plutella xylostella, in Brassica oleracea, rate 100 ppm, read-out: % mortality (obs)
[10] = Plutella xylostella, in Brassica oleracea, rate 1 ppm, read-out: % mortality (obs)

## Cc1ccc(/N=C/N(C)/C=N/c2ccc(C)cc2C)c(C)c1 [Amitraz, amitraz]
[1]; rate 10
  % mortality: 70%
[1]; rate 100
  % mortality: 20%
[1]; rate 1000
  % mortality: 50%

## CC(C)N1C(=O)N(c2ccccc2)CS/C1=N\C(C)(C)C [Buprofezin, buprofezin]
[1]; [7]
  mortality at 10 ppm: 30%
[1]; [8]
  mortality at 1000 ppm: 60%

## CCOP(=S)(OCC)Oc1nc(Cl)c(Cl)cc1Cl [Chlorpyrifos, chlorpyrifos]
[1]; [7]
  mortality at 10 ppm: 80%
[1]; [9]
  mortality at 100 ppm: 40%
[1]; [8]
  mortality at 1000 ppm: 50%

## CNC(=O)c1cc(C#N)cc(C)c1NC(=O)c1cc(Br)nn1-c1ncccc1Cl [Compund 1]
[2]; rate 7 ppm
  % mortality (obs): 30%
[2]; rate 9 ppm
  % mortality (obs): 53%
[2]; rate 12 ppm
  % mortality (obs): 71%

## Nc1nc(N)nc(NC2CC2)n1 [Cyromazine, cyromazine]
[1]; Plutella xylostella, in Brassica oleracea, rate 20 ppm, read-out: % mortality (obs)
  mortality at 20 ppm: 60%
[1]; Plutella xylostella, in Brassica oleracea, rate 40 ppm, read-out: % mortality (obs)
  mortality at 40 ppm: 90%
[1]; Plutella xylostella, in Brassica oleracea, rate 60 ppm, read-out: % mortality (obs)
  mortality at 60 ppm: 80%

## CC1(C)[C@H](C(=O)O[C@H](C#N)c2cccc(Oc3ccccc3)c2)[C@@H]1C=C(Br)Br [Deltamethrin, deltamethrin]
[1]; Plutella xylostella, in Brassica oleracea, rate 0.1 ppm, read-out: % mortality (obs)
  mortality at 0.1 ppm: 90%
[1]; Plutella xylostella, in Brassica oleracea, rate 0.3 ppm, read-out: % mortality (obs)
  mortality at 0.3 ppm: 90%
[1]; [10]
  mortality at 1 ppm: 90%

## CCOC(=O)NCCOc1ccc(Oc2ccccc2)cc1 [Fenoxycarb, fenoxycarb]
[1]; [7]
  mortality at 10 ppm: 90%
[1]; [9]
  mortality at 100 ppm: 90%
[1]; [8]
  mortality at 1000 ppm: 90%

## N#CCNC(=O)c1cnccc1C(F)(F)F [Flonicamid, flonicamid]
[1]; rate 1
  % mortality: 0%
[1]; rate 15
  % mortality: 60%
[1]; rate 1000
  % mortality: 30%

## O=C(NC(=O)c1c(F)cccc1F)Nc1cc(Cl)c(OC(F)(F)C(F)F)c(Cl)c1 [Hexaflumuron, hexaflumuron]
[1]; Plutella xylostella, in Brassica oleracea, rate 0.5 ppm, read-out: % mortality (obs)
  mortality at 0.5 ppm: 70%
[1]; [10]
  mortality at 1 ppm: 30%
[1]; [7]
  mortality at 2 ppm: 70%
[3]; Frankliniella occidentalis, rate 10 ppm, read-out: % mortality (obs)
  mortality at 10 ppm: 20%
[3]; Frankliniella occidentalis, rate 3000 ppm, read-out: % mortality (obs)
  mortality at 3000 ppm: 60%

## CC1(C)CNC(=NN=C(/C=C/c2ccc(C(F)(F)F)cc2)/C=C/c2ccc(C(F)(F)F)cc2)NC1 [Hydramethylnon, hydramethylnon]
[1]; Plutella xylostella, in Brassica oleracea, rate 0.01 ppm, read-out: % mortality (obs)
  mortality at 0.01 ppm: 70%
[1]; Plutella xylostella, in Brassica oleracea, rate 0.05 ppm, read-out: % mortality (obs)
  mortality at 0.05 ppm: 50%
[1]; Plutella xylostella, in Brassica oleracea, rate 0.2 ppm, read-out: % mortality (obs)
  mortality at 0.2 ppm: 60%

## O=[N+]([O-])NC1=NCCN1Cc1ccc(Cl)nc1 [Imidacloprid, imidacloprid]
[4]; Imidacloprid 0.4 ppm
  % Mortality (observed): 20%
[4]; Imidacloprid 1.4 ppm
  % Mortality (observed): 0%
[4]; Imidacloprid 4.6 ppm
  % Mortality (observed): 20%
[5]; Myzus persicae, in Raphanus sativus, read-out: % Mortality (observed)
  mortality at 0.3 ppm: 50%

## COC(=O)N(C(=O)N1CO[C@@]2(C(=O)OC)Cc3cc(Cl)ccc3C2=N1)c1ccc(OC(F)(F)F)cc1 [Indoxacarb, indoxacarb]
[1]; rate 0.02 ppm
  % mortality (obs): 80%
[1]; rate 0.05 ppm
  % mortality (obs): 40%

## O=C(NC(=O)c1c(F)cccc1F)Nc1cc(Cl)c(OC(F)(F)C(F)C(F)(F)F)cc1Cl (stereo not drawn) [Lufenuron, lufenuron]
[1]; [7]
  mortality at 0.08 ppm: 80%
  mortality at 0.4 ppm: 80%
  mortality at 2 ppm: 90%

## CNC(=O)ON=C(C)SC [Methomyl, methomyl]
[1]; rate 30
  % mortality: 80%
[1]; rate 40
  % mortality: 90%
[1]; rate 50
  % mortality: 80%

## COc1cccc(C(=O)NN(C(=O)c2cc(C)cc(C)c2)C(C)(C)C)c1C [Methoxyfenozide, methoxyfenozide]
[1]; [7]
  mortality at 0.08 ppm: 90%
  mortality at 0.4 ppm: 90%
  mortality at 2 ppm: 90%
[6]; Aphis gossypii, rate 5 ppm, read-out: % mortality (obs)
  mortality at 5 ppm: 22%
[6]; Aphis gossypii, rate 50 ppm, read-out: % mortality (obs)
  mortality at 50 ppm: 20%
[6]; Aphis gossypii, rate 500 ppm, read-out: % mortality (obs)
  mortality at 500 ppm: 26%

## CCN(Cc1ccc(Cl)nc1)/C(=C/[N+](=O)[O-])NC [Nitenpyram, nitenpyram]
[1]; rate 30 ppm
  % mortality (obs): 90%
[1]; rate 150 ppm
  % mortality (obs): 90%

## CNC(=O)O/N=C(\SC)C(=O)N(C)C [Oxamyl, oxamyl]
[1]; rate 1 ppm
  % mortality (obs): 60%

## CCc1ccc(C(=O)NN(C(=O)c2cc(C)cc(C)c2)C(C)(C)C)cc1 [Tebufenozide, tebufenozide]
[1]; Plutella xylostella, in Brassica oleracea, rate 150 ppm, read-out: % mortality (obs)
  mortality at 150 ppm: 90%
[1]; Plutella xylostella, in Brassica oleracea, rate 200 ppm, read-out: % mortality (obs)
  mortality at 200 ppm: 90%
[1]; Plutella xylostella, in Brassica oleracea, rate 300 ppm, read-out: % mortality (obs)
  mortality at 300 ppm: 90%

## CS/C(C)=N\OC(=O)N(C)SN(C)C(=O)O/N=C(\C)SC [Thiodicarb, thiodicarb]
[1]; rate 100 ppm
  % mortality (obs): 90%
[1]; rate 1000 ppm
  % mortality (obs): 90%
[1]; rate 3000 ppm
  % mortality (obs): 90%

## dieldrin
[1]; rate 2
  % mortality: 90%
[1]; rate 2.5
  % mortality: 100%
[1]; rate 3
  % mortality: 100%

## pyridaben
[1]; rate 100
  % mortality: 100%
[1]; rate 150
  % mortality: 80%
[1]; rate 200
  % mortality: 100%

## spinosad
[1]; rate 10
  % mortality: 100%
[1]; rate 100
  % mortality: 90%
[1]; rate 1000
  % mortality: 100%

## thiamethoxam
[1]; rate 30
  % mortality: 90%
[1]; rate 40
  % mortality: 100%
[1]; rate 50
  % mortality: 100%
[3]; Thiamethoxam 1 ppm alone
  % Mortality (observed): 33%
[3]; Thiamethoxam 5.5 ppm alone
  % Mortality (observed): 43%
[3]; Thiamethoxam 29 ppm alone
  % Mortality (observed): 43%
[2]; Thiamethoxam 15 ppm alone
  % Mortality (observed): 53%
[2]; Thiamethoxam 26 ppm alone
  % Mortality (observed): 65%
[5]; 0.2 ppm
  % Mortality (observed): 23%
[5]; 0.3 ppm
  % Mortality (observed): 23%
[5]; 0.5 ppm
  % Mortality (observed): 93%
[6]; Thiamethoxam 0.5 ppm
  % Mortality (observed): 22%
[6]; Thiamethoxam 0.8 ppm
  % Mortality (observed): 83%
[6]; Thiamethoxam 1 ppm
  % Mortality (observed): 91%
